Tests used:
Test in all cases: Test F preemergence
goosegrass = type: in vivo, Eleusine indica
Source text: (§1) Seeds of plant species selected from corn (Zea mays), soybean (Glycine max), velvetleaf (Abutilon theophrasti), lambsquarters (Chenopodium album), wild poinsettia (Euphorbia heterophylla), pigweed, palmer (palmer pigweed, Amaranthus palmeri), common waterhemp (Amaranthus rudis), surinam grass (Brachiaria decumbens), large crabgrass (Digitaria sanguinalis), crabgrass, Brazil (Brazilian crabgrass, Digitaria horizontalis), fall panicum (Panicum dichotomiflorum), giant foxtail (Setaria faberii), green foxtail (Setaria viridis), goosegrass (Eleusine indica), johnsongrass (Sorghum halepense), common ragweed (Ambrosia elation), barnyardgrass (Echinochloa crus-galli), southern sandbur (Cenchrus echinatus), arrowleaf sida (Sida rhombifolia), Italian ryegrass (Lolium multiflorum), dayflower, VA (Virginia (VA) dayflower, Commelina virginica), field bindweed (Convolvulus arvensis), cocklebur (common cocklebur, Xanthium strumarium), morningglory (Ipomoea coccinea), nightshade (eastern black nightshade, Solanum ptycanthum), kochia (Kochia scoparia), yellow nutsedge (Cyperus esculentus), and hairy beggarticks (Bidens pilosa), were planted into a silt loam soil and treated preemergence with test chemicals formulated in a non-phytotoxic solvent mixture which included a surfactant.
(§2) At the same time, plants from these crop and weed species and also horseweed (Canada horseweed, Conyza canadensis), smartweed (ladysthumb smartweed, Polygonum persicaria), waterhemp_RES1, (ALS & Triazine resistant common waterhemp, Amaranthus rudis), and waterhemp_RES2, (ALS & HPPD resistant common waterhemp, Amaranthus rudis) were treated with postemergence applications of test chemicals formulated in the same manner. Plants ranged in height from 2 to 18 cm for postemergence treatments (1- to 4-leaf stage). Treated plants and controls were maintained in a greenhouse for 14 to 21 days, after which time all species were compared to controls and visually evaluated. Plant response ratings, summarized in Table F, are based on a scale of 0 to 100 where 0 is no effect and 100 is complete control. A dash (-) response means no test result.

Italian ryegrass = type: in vivo, Lolium multiflorum
Source text: as §1, §2

common waterhemp = type: in vivo, Amaranthus rudis
Source text: as §1, §2

large crabgrass = type: in vivo, Digitaria sanguinalis
Source text: as §1, §2

[1] = Preemergence, 31 g ai/ha, scale 0 to 100
[2] = Preemergence, 62 g ai/ha, scale 0 to 100
[3] = Preemergence, 125 g ai/ha, scale 0 to 100
[4] = preemergence, 8 g ai/ha, scale 0 to 100, 100 is complete control
[5] = preemergence, 16 g ai/ha, scale 0 to 100, 100 is complete control
[6] = Preemergence, 16 g ai/ha, scale 0 to 100
[7] = preemergence, scale 0 to 100, 100 is complete control
[8] = Preemergence, 250 g ai/ha, scale 0 to 100

Structure (SMILES)	Plant response rating, Goosegrass (goosegrass; [1])	Plant response rating, Goosegrass (goosegrass; [2])	Plant response rating, Goosegrass (goosegrass; [3])	Plant response rating, Goosegrass (goosegrass; [4])	Plant response rating, Goosegrass (goosegrass; [5])	Plant response rating, Italian Ryegrass (Italian ryegrass; [1])	Plant response rating, Italian Ryegrass (Italian ryegrass; [2])	Plant response rating, Italian Ryegrass (Italian ryegrass; [3])	Plant response rating, Italian Ryegrass (Italian ryegrass; [4])	Plant response rating, Italian Ryegrass (Italian ryegrass; [5])	Plant response rating, Common Waterhemp (common waterhemp; [2])	Plant response rating, Common Waterhemp (common waterhemp; [3])	Plant response rating, Common Waterhemp (common waterhemp; [4])	Plant response rating, Common Waterhemp (common waterhemp; [5])	Plant response rating, Large Crabgrass (large crabgrass; [2])	Plant response rating, Large Crabgrass (large crabgrass; [3])	Plant response rating, Large Crabgrass (large crabgrass; [4])	Plant response rating, Large Crabgrass (large crabgrass; [5])	Plant response rating, Common Waterhemp (common waterhemp; [6])	Plant response rating, Large Crabgrass (large crabgrass; [7])	other results
CCOc1cc(C(=O)NCC(F)(F)F)nn1Cc1ccnc(C(F)(F)F)c1 [Compound 104]	30	75	100	5	25	40	60	75	0	0	100	100	65	98	100	100	70	90			Plant response rating, Common Waterhemp (common waterhemp; [1]): 100; Plant response rating, Large Crabgrass (large crabgrass; [1]): 100
CCNC(=O)c1cc(CCCl)n(Cc2ccnc(C(F)(F)F)c2)n1 [Compound 179]	30	30	30	0		10	40	65	0		25	75	0		95	90	0				Plant response rating, Common Waterhemp (common waterhemp; [1]): 0; Plant response rating, Large Crabgrass (large crabgrass; [1]): 40
CCNC(=O)c1cc(CC)n(Cc2ccnc(C(F)(F)F)c2)n1 [Compound 196]		70	95	0	0		20	50	0	0	75	100	0	35	100	100	35	35	50	95	
Cc1cc(C(=O)NC(C)C)nn1Cc1ccnc(C(F)(F)F)c1 [Compound 197]		5	70	0	0		30	30	0	0	65	85	20	60	35	100	0	0	65	35	
CCc1cc(C(=O)NC2CC2)nn1Cc1ccnc(OCC(F)(F)F)c1 [Compound 200]		35	65		0		0	60		0	20	100			20	100		0	0	35	Plant response rating, Goosegrass (goosegrass; [8]): 90; Plant response rating, Italian Ryegrass (Italian ryegrass; [8]): 75; Plant response rating, Common Waterhemp (common waterhemp; [8]): 100; Plant response rating, Large Crabgrass (large crabgrass; [8]): 100
